Data from patent US9090608B2, “Pharmaceutical composition for preventing or treating osteoporosis or obesity comprising phenyltetrazole derivative” (KOREA RESEARCH INSTITUTE OF CHEMICAL TECHNOLOGY, priority 2009, dated 2015).

Experiments:
Assay type in all cases: cell-based
protein TAZ = target: T1, protein TAZ (Homo sapiens, UniProt Q9GZV5); experiment: Stimulating TAZ protein migration toward nucleus (GFP-TAZ high-content imaging); conditions: 0.5 h, after 30 minutes, Cos cells, percentage based on non-treated control cells, read-out: Expression (%): GFP expression of protein TAZ in the nucleus
T1 construct: introducing full length TAZ cDNA synthesized by PCR method into vector pEGFP; expressed in transfected cells
T1 sequence (Q9GZV5 whole entry): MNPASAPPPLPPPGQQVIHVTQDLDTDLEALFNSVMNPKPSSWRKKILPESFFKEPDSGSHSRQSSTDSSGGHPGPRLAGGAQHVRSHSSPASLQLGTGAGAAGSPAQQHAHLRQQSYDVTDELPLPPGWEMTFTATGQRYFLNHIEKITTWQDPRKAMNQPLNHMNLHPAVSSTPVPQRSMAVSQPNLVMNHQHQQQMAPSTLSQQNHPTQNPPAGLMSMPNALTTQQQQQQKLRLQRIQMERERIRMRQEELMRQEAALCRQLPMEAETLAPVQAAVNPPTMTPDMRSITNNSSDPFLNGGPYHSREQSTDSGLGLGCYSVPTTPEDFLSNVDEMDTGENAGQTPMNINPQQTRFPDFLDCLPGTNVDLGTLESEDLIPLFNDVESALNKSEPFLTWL
Procedure: Vector pEGFP-TAZ in which GFP (green fluorescence protein) is linked to protein TAZ was prepared, and nucleus specific histone protein (RFP-H2B) expression vector having introduced RFP (red fluorescence protein) therein was prepared. The vector pEGFP-TAZ was prepared by introducing full length TAZ cDNA synthesized by PCR method into vector pEGFP (Invitrogen, Carlsbad, Calif., USA) and then cloning. The expression vector RFP-H2B was prepared by introducing full length histone H2B cDNA into expression vector RFP (Clontech Laboratories, Inc., Palo Alto, Calif., USA) and then cloning.
Cos? cells (ATCC, Manassas, Va.) were distributed to each well of a 96-well plate (5×10^3 cells/well) and stabilized, and then vectors pEGFP-TAZ and RFP-H2B were introduced into the cells by employing Effectene™ (Qiagen). After 48 hours, the cells were treated with each of the inventive compounds to a concentration of 10 μM. After 30 minutes, the movement of green fluorescent color toward the cell nucleus was observed continually by employing BD Pathway™ high-content bioimager (BD bioscience). Using a quantification program (BD IPLab™ for Pathway and BD™ Image Data Explorer), GFP expression in the nucleus of RFP-expressed cells was quantified.
GFP expressions of protein TAZ in the nucleus were analyzed and calculated in percentage term based on that of non-treated cells in a control group, which are shown in Table 3.

PPARγ = experiment: TAZ activity of inhibiting PPARγ function (aP2-luc reporter in 293T cells); conditions: Homo sapiens, HEK-293T, 24 h, percentage based on inhibitory effect in non-treated control cells, read-out: Increased inhibition (%) of aP2 promoter activity
Description: 293T cells (ATCC) were placed in the wells of a 48-well plate (1×10^5 cells/well) and stabilized. Introduced to the cells were PPARγ and TAZ expression vectors together with vectors aP2-luc (adipose fatty acid binding protein 2 promoter linked to luciferase) and pCMVβ Hong et al., Science 2005; 309:1074-8]. For observing the effect on transcription activation of the target gene by the PPARγ or TAZ protein expression, aP2-luc reporter gene was also introduced into the cells. For calibration of the introduction efficiency in cells, vector pCMVβ was introduced in cells in same amounts and the β-galactosidase activity was measured to calibrate the luciferase activity.
After 24 hours, the cells were treated with each of the inventive compounds to a concentration of 10 μM and then further cultivated for 24 hours. Proteins of the resulting cells were extracted with a lysis solution comprising NP-40, and thus luciferase activity was measured (Promega, Sunnyvale, Calif., USA).
Increased inhibitory effect on the aP2 promoter activity was analyzed and the results were calculated in percentage term based on the inhibitory effect on the aP2 promoter activity observed for the non-treated cells in a control group.

RUNX2 = experiment: TAZ activity of stimulating RUNX2 function (6xOSE-luc reporter in 293T cells); conditions: for activity at 10 µM: Homo sapiens, HEK-293T, 24 hours, 293T cells, percentage based on non-treated control cells, read-out: Activity (%): osteocalcin promoter activity; for Additional stimulating activity on TAZ stimulation of RUNX2: 10 μM, considered additional when value exceeds 570% of the average increase by protein TAZ
Procedure: Introduced in 293T cells were introduced RUNX2 and TAZ expression vector together with 6×OSE-luc (osteocalcin-specific element linked to luciferase, six copies of RUNX2-binding site in the osteocalcin promoter linked to luciferase) [Hong et al., Science 2005; 309:1074-8]. This test was for an evaluation of an activity of the inventive compounds in stimulating the luciferase activity which increases when RUNX2 binds to TAZ.
After 24 hours, the cells were treated with each of the inventive compounds to a concentration of 10 μM and then further cultivated for 24 hours. The procedure of Test 2 was repeated to extract the cell protein, and then reporter gene analysis was conducted to quantify the effect of the inventive compounds on the TAZ activity in stimulating RUNX2. For comparing the transformation efficaciency, β-galactosidase expression vector (pCMVβ) was introduced to 293T cells and the β-galactosidase activity was measured for calibration.
The osteocalcin promoter activity was analyzed in percentage term based on that of non-treated cells in a control group. When the value exceeds 570% of the average increase by protein TAZ, the compound was considered to have an additional stimulating activity.

3T3-L1 preadipocytes = experiment: Differentiation of 3T3-L1 cells into adipocytes (Oil-red O staining); conditions: for Inhibition of adipocyte differentiation (Oil-red O staining): compound added at each medium replacement, after 8 days
Procedure: 3T3-L1 preadipocytes (ATCC CL-173) were dispersed in a DMEM medium comprising 10% FBS (fatal bovine serum , and then confluently cultivated for 48 hours in a 24-well plate (3×10^4 cells/well). 2 μM rosiglitazone, 5 μg/mL insulin, and 1 μM dexamethasone were added thereto to induce adipocyte differentiation.
After 48 hours, the medium was replaced with a DMEM comprising 5 μg/mL insulin and 10% FBS (fatal bovine serum), and 48 hours later, the medium was replaced with a DMEM comprising 10% FBS. Then, the medium was replaced every 48 hours to evaluate adipocyte differentiation. The inventive compounds were each added during the replacement of the medium. After 8 days, the cells were fixed with 10% formalin, and Oil-red O staining was conducted to confirm adipocytes generated in cells.

C3H10T1/2 cells = experiment: Differentiation of C3H10T1/2 cells into osteoblasts (Alizarin red S staining); conditions: 10 μM, after 20 days
Procedure: C3H10T1/2 cells (ATCC CCL 226) were diluted in a α-MEM medium comprising 10% FBS, cultivated in a 96-well plate (1×10^4 cells/well) for 48 hours, and the medium was replaced every 48 hours to observe the osteoblast differentiation. On the initiation of differentiation, the medium was treated with 10 μM of each of the inventive compounds.
After 20 days, the cells were fixed with 70% ethanol and stained with an Alizarin red S solution to confirm increased calcium in osteocytes. In the Alizarin red staining test, the degrees of osteoblast differention can be identified by the intensity of red color.

Compound: CCc1nc2c(C)cc(CO)nc2n1Cc1ccc(-c2ccccc2-c2nnn[nH]2)cc1 [II, {2-ethyl-7-methyl-3-[2′-(1H-tetrazol-5-yl)biphenyl-4-ylmethyl]-3H-imidazo [4,5-b]pyridin-5-yl}methanol]
- activity at 10 µM (protein TAZ): 130%
- inhibition at 10 µM (PPARγ): 43.2%
- activity at 10 µM (RUNX2): 473%

Compound: CCCCc1nc2cc(-c3cccnc3)c(C)nc2n1Cc1ccc(-c2ccccc2-c2nnn[nH]2)cc1 [III, 2-butyl-5-methyl-6-pyridin-3-yl-3-[2′-(1H-tetrazol-5-yl)biphenyl-4-ylmethyl]-3H-imidazo[4,5-b]pyridine]
- activity at 10 µM (protein TAZ): 157%
- inhibition at 10 µM (PPARγ): > 60%
- activity at 10 µM (RUNX2): 259%
- Inhibition of adipocyte differentiation (Oil-red O staining) (3T3-L1 preadipocytes): adipocyte differentiation was inhibited
- Stimulation of osteoblast differentiation (Alizarin red staining) (C3H10T1/2 cells): osteoblast differentiation was stimulated

Compound: CCCCc1nc2cc(-c3ccccn3)c(C(=O)OC)nc2n1Cc1ccc(-c2ccccc2-c2nnn[nH]2)cc1 [IV, methyl 2-butyl-6-pyridin-2-yl-3-[2′-(1H-tetrazol-5-yl)biphenyl-4-ylmethyl]-3H-imidazo[4,5-b]pyridine-5-carboxylate]
- activity at 10 µM (protein TAZ): 135%
- activity at 10 µM (RUNX2): 463%
- Inhibition of adipocyte differentiation (Oil-red O staining) (3T3-L1 preadipocytes): adipocyte differentiation was inhibited

Compound: CCCCc1nc2cc(Br)c(COC(C)=O)nc2n1Cc1ccc(-c2ccccc2-c2nnnn2C(C)OCC)cc1 (centres unmarked) [IX, 6-bromo-2-butyl-3-{2′-[1-(1-ethoxyethyl)-1H-tetrazol-5-yl]biphenyl-4-ylmethyl}-3H-imidazo[4,5-b]pyridin-5-ylmethyl acetate]
- activity at 10 µM (protein TAZ): 147%
- inhibition at 10 µM (PPARγ): 22.7%
- Additional stimulating activity on TAZ stimulation of RUNX2 (RUNX2): additional stimulating activity was observed
- activity at 10 µM (RUNX2): 676%

Compound: CCCCc1nc2c(C)cc(CO)nc2n1Cc1ccc(-c2ccccc2-c2nnn[nH]2)cc1 [V, {2-butyl-7-methyl-3-[2′-(1H-tetrazol-5-yl)biphenyl-4-ylmethyl]-3H-imidazo[4,5-b]pyridin-5-yl}methanol]
- activity at 10 µM (protein TAZ): 151%
- inhibition at 10 µM (PPARγ): 32.3%
- activity at 10 µM (RUNX2): 468%
- Stimulation of osteoblast differentiation (Alizarin red staining) (C3H10T1/2 cells): osteoblast differentiation was stimulated

Compound: CCCCc1nc2cc(-c3cccc[n+]3[O-])c(CF)nc2n1Cc1ccc(-c2ccccc2-c2nnn[nH]2)cc1 [VI, 2-butyl-5-fluoromethyl-6-(1-oxypyridin-2-yl)-3-[2′-(1H-tetrazol-5-yl)biphenyl-4-ylmethyl]-3H-imidazo[4,5-b]pyridine]
- activity at 10 µM (protein TAZ): 132%
- inhibition at 10 µM (PPARγ): 51.3%
- activity at 10 µM (RUNX2): 483%

Compound: CCCCc1nc2cc(C(O)c3ccccc3)c(C(OC)OC)nc2n1Cc1ccc(-c2ccccc2-c2nnnn2C(C)OCC)cc1 (centres unmarked) [VII, (2-butyl-5-dimethoxymethyl-3-{2′-[1-(1-ethoxyethyl)-1H-tetrazol-5-yl]biphenyl-4-ylmethyl}-3H-imidazo[4,5-b]pyridin-6-yl)phenylmethanol]
- activity at 10 µM (protein TAZ): 160%
- inhibition at 10 µM (PPARγ): 46.7%
- activity at 10 µM (RUNX2): 476%
- Inhibition of adipocyte differentiation at a higher concentration (3T3-L1 preadipocytes; treating at a higher concentration): markedly increased inhibitory effect

Compound: CCCCc1nc2cc(C(O)c3ccccc3)c(C(OC)OC)nc2n1Cc1ccc(-c2ccccc2-c2nnn[nH]2)cc1 (centres unmarked) [VIII, {2-butyl-5-dimethoxymethyl-3-[2′-(1H-tetrazol-5-yl)biphenyl-4-ylmethyl]-3H-imidazo[4,5-b]pyridin-6-yl}phenylmethanol]
- inhibition at 10 µM (PPARγ): > 60%
- Additional stimulating activity on TAZ stimulation of RUNX2 (RUNX2): additional stimulating activity was observed
- activity at 10 µM (RUNX2): 688%

Compound: CCCCc1nc2cc(Br)c(COC(C)=O)nc2n1Cc1ccc(-c2ccccc2-c2nnn[nH]2)cc1 [X, 6-bromo-2-butyl-3-[2′-(1H-tetrazol-5-yl)biphenyl-4-ylmethyl]-3H-imidazo[4,5-b]pyridin-5-ylmethyl acetate]
- inhibition at 10 µM (PPARγ): 57.5%
- Additional stimulating activity on TAZ stimulation of RUNX2 (RUNX2): additional stimulating activity was observed
- activity at 10 µM (RUNX2): 672%

Compound: CCCCc1nc2c(C)c(-c3ccccc3)c(COCSC)nc2n1Cc1ccc(-c2ccccc2-c2nnn[nH]2)cc1 [XI, 2-butyl-7-methyl-5-((methylsulfanylmethoxy)methyl)-6-phenyl-3-[2′-(1H-tetrazol-5-yl)biphenyl-4-ylmethyl]-3H-imidazo[4,5-b]pyridine]
- activity at 10 µM (protein TAZ): 134%
- Additional stimulating activity on TAZ stimulation of RUNX2 (RUNX2): additional stimulating activity was observed
- activity at 10 µM (RUNX2): 754%

Compound: CCCCc1nc2cc(C(=O)OC)c(/C=C/c3ccccc3)cc2n1Cc1ccc(-c2ccccc2-c2nnn[nH]2)cc1 [XII, methyl 2-butyl-6-styryl-1-[2′-(1H-tetrazol-5-yl)biphenyl-4-ylmethyl]-1H-benzimidazol-5-carboxylate]
- activity at 10 µM (protein TAZ): 149%
- inhibition at 10 µM (PPARγ): > 60%
- activity at 10 µM (RUNX2): 296%
- Inhibition of adipocyte differentiation (Oil-red O staining) (3T3-L1 preadipocytes): adipocyte differentiation was inhibited

Compound: CCCCc1nc2cc(/C=C/c3ccccc3)c(C(=O)OC)cc2n1Cc1ccc(-c2ccccc2-c2nnn[nH]2)cc1 [XIII, methyl 2-butyl-5-styryl-1-[2′-(1H-tetrazol-5-yl)biphenyl-4-ylmethyl]-1H-benzimidazol-6-carboxylate]
- inhibition at 10 µM (PPARγ): 39.9%
- activity at 10 µM (RUNX2): 569%
